# Experimental data from a melting point compilation (Tetko et al.; mined from patent text by program, amines drawn as free bases though some values may be those of a salt).
row,melting point,Compound
1,255 °C,NS(=O)(=O)c1ccc(-c2noc(-c3cnn4c(C(F)(F)F)cc(-c5ccc(C(F)(F)F)c(OCC(F)(F)F)c5)nc34)n2)s1
2,109 to 111 °C,COC(=O)c1sc(C(C)(C)C)cc1NC(=O)Nc1ccc(C)cc1
3,113 to 115 °C,O=C1Nc2ccccc2C1CCCCN1CCN(c2ccc(F)cc2)CC1 (centres undefined)
4,58.2 to 59 °C,COCC(O)Cn1ncc([N+](=O)[O-])n1 (centres undefined)
5,49 to 50 °C,CCOC(=O)/C(=C\Nc1cccc(OC)c1)c1ccccc1
6,218 to 220 °C,CNc1nc(-c2cccc(NC(=O)Nc3ccccc3)c2)c2cc(OC)c(OC)cc2n1
7,168 to 170 °C,Nc1nc(=O)n(CC2CCCO2)cc1F (centres undefined)
8,102 to 107 °C,OCc1ccc(Cl)cc1C(O)c1ccccc1 (centres undefined)
9,158 to 159 °C,CC(=O)Nc1ccc(N2CCC(=O)CC2)cc1
10,85 to 88 °C,OCc1cc(COc2ccc(Cl)cc2Cl)cc(OCc2ccccc2)c1
11,159 to 161 °C,Cn1cc(-c2cc(Oc3ccccc3)c(Cl)cc2F)c(=O)cc1C(F)(F)F
12,88 °C,COc1ccc2c(C)c(C)oc2c1C=O
13,72 to 77 °C,CC(C)(C)OC(=O)CN1CCC(C)(N)C1=O (centres undefined)
14,172 to 173 °C,O=C(O)CCC(=O)c1cc(Cl)ccc1O
15,102 to 103 °C,CCN(c1ccc(C#N)cc1[N+](=O)[O-])S(=O)(=O)c1ccc(Cl)s1
16,128 °C,CC(=NN(C)C(=O)c1ccccc1)c1ccncc1
17,131 to 133 °C,CC(=O)c1nc2ccc(Oc3ccccc3)cc2cc1O
18,177 to 180 °C,CCCOc1ccc(S(=O)(=O)N2CCN(C(C)=O)CC2)c(-c2nc3cc(N)c(N)cc3c(=O)[nH]2)c1
19,89 °C,NC(CCOS(=O)(=O)c1ccccc1)C(=O)Nc1ccccc1 (centres undefined)
20,139 to 140 °C,FC(F)(F)c1cccc(-c2ccnc(Nc3ccc4c(c3)OCCO4)c2)c1
21,80 to 81.5 °C,CCc1ccccc1C(Cc1ccccc1NC(=O)C(C)(C)C)NC (centres undefined)
22,108 to 110 °C,CC(C)C1NC(=S)N(c2ccc(N(C)C)c3ccccc23)C1=O (centres undefined)
23,59 to 61 °C,Cc1c(F)c(F)cc(C#N)c1Cl
24,167 to 168 °C,CON=C1CCC(N(C)C(=O)c2ccc3nonc3c2)CC1 (centres undefined)
25,146 to 148 °C,COC1=CC(=O)c2c(C)cc(C)cc2C1=O

row,melting point,Compound
1,139 to 142 °C,C=CCN(C(C)=O)c1cccc(-c2ccc3nncn3n2)c1
2,98 to 101 °C,CC(C)(C)c1noc(-c2cnc(Cl)c(Cl)c2)n1
3,> 300 °C,COc1cc(Nc2c(C#N)cnc3cc(-c4ccc(C(N)=O)cc4)sc23)c(Cl)cc1Cl
4,254 to 256 °C,COC(=O)c1ccc2c(c1)S(=O)(=O)c1ccccc1N=C2Cl
5,182 to 184 °C,COc1nc(C)cnc1NS(=O)(=O)c1cccnc1-c1ccc(OC(C)(C)CO)cc1
6,190 to 192 °C,Fc1cccc(Nc2cc(-c3ccnc(NC4CCOCC4)n3)ccn2)c1
7,69 to 71 °C,CCNc1ccc2c(c1)CNC2
8,241 °C,Cc1ccc2c(c1)c(Cl)c(C#N)c(=O)n2C
9,160 to 162 °C,CCOC(=O)C(=O)Nc1ccc(C=Cc2ccc3ccccc3n2)cc1
10,79 to 81 °C,O=C(NCCCC[C@H](O)C(=O)O)OCc1ccccc1
11,106 to 108 °C,COC(=O)C(O)C(NCc1ccccc1)c1ccc(Cl)cc1 (centres undefined)
12,170 to 172 °C,COC(CCCNC(=O)C=CC(=O)NCCCC(OC)OC)OC
13,141 to 142 °C,CCC(O)(c1ccc(O)cc1O)c1ccccc1OC (centres undefined)
14,288 °C,S=c1[nH]c(-c2ccc(Br)cc2)c(-c2ccc(Br)cc2)[nH]1
15,155 to 157 °C,Cc1ccccc1-c1cc(N2CCN(C)CC2)ncc1N(C)C(=O)C(C)(C)c1cc(C(F)(F)F)cc(C(F)(F)F)c1
16,151 to 153 °C,Fc1ccc2c(C3CCN(C(=S)Nc4ccccc4)CC3)nn(-c3ccccc3)c2c1
17,156 to 157 °C,C#Cc1cc(C=Cc2cc(C(C)(C)C)cc(C(C)(C)C)c2)cc(C=Cc2cc(C(C)(C)C)cc(C(C)(C)C)c2)c1
18,244 to 246 °C,COc1ccc(-c2cc3nccnc3[nH]2)cc1
19,66 to 68 °C,CCC(CO)(c1cccs1)N(C)C (centres undefined)
20,240 °C,O=C(O)CCCn1nc(-c2c(-c3ccccc3)nn3ccccc23)ccc1=O
21,116 to 118 °C,CCC(CC)n1c(=O)ccc2cnc(Nc3ccccc3)nc21
22,127 to 129 °C,Cc1nc(NC(=O)N(C)C)nc(C)c1Cl
23,300 to 302 °C,CS(=O)(=O)c1ccc(-c2[nH]c3ccc(Cl)cc3c2-c2ccccc2Cl)cc1
24,103 to 104 °C,CCOC(=O)c1cc(Cl)cnc1NC(=O)Cc1cccc(Oc2ccccc2)c1
25,238 to 244 °C,CC1(c2ccccc2)C(=O)c2c(cc(O)c(Cl)c2Cl)C1c1ccccc1 (centres undefined)

row,melting point,Compound
1,138 to 142 °C,COc1ccc(CCNC[C@H](O)COc2ccc(-c3nc(C(C)=O)c[nH]3)cc2)cc1OC
2,> 300 °C,Clc1nc2ccccc2c2c1ncn2Cc1ccncc1
3,115 to 117 °C,CC(C)(C)OC(=O)CN1CC(c2ccsc2)SCC(N)C1=O (centres undefined)
4,208 to 210 °C,COc1ccc(-c2nc(NC(C)=O)sc2-c2cccnc2)cc1
5,207 to 209 °C,Cc1cnc2c(C#N)c(C)nn2c1-c1cccnc1
6,135 to 136 °C,Nc1ccc(C(=O)OC2CCN(Cc3ccccc3)CC2)cn1
7,103 to 105 °C,CC(C)NS(=O)(=O)c1ccc(N2CCC(=O)CC2)cc1
8,157 to 159 °C,Cn1nc(-c2ccc(Cl)cc2)c2cc3ccccc3cc21
9,257 to 259 °C,Cc1ccccc1C1=C(c2cccc(OCc3ccccc3)c2)OS(=O)(=O)CC1
10,75 to 77 °C,Oc1ccc(Nc2nc(NCc3ccco3)nc(Nc3ccc(F)c(F)c3)n2)cc1
11,126 to 129 °C,O=C1NC(=O)C(c2ccc(Br)o2)O1 (centres undefined)
12,108 to 110 °C,CCCCCCc1cc(C=O)c(O)cc1O
13,188 to 190 °C,O=C(C=Cc1ccc(Br)cc1)N1CCc2c([nH]c3ccccc23)C1c1ccc2c(c1)OCO2 (centres undefined)
14,264 to 266 °C,O=C1Nc2ccc(Cl)cc2Cc2sccc21
15,210 °C,COC(=O)c1ccc(SCn2cc(I)cnc2=O)cc1
16,88 to 89 °C,O=Cc1cc(Br)cnc1Cl
17,154 to 157 °C,c1ccc(Nc2ccc(Cc3ccc(Nc4ccccc4)c4ccccc34)c3ccccc23)cc1
18,99.5 to 101 °C,N#CCCCC(N)=NO
19,153 °C,CNC(=S)C1(c2ccccn2)CCCCS1 (centres undefined)
20,220 to 221 °C,COc1ccc(S(=O)(=O)Nc2nsc(-c3ccc(Cl)cc3)n2)cc1OC
21,166 to 170 °C,CC(O)(c1ccc(F)cc1)c1ccc(-c2ccncc2)cc1 (centres undefined)
22,152 to 154 °C,CC(C)(C)c1nc(C[C@@H]2CC[C@](C)(NCC(=O)N3C[C@@H](F)C[C@H]3C#N)C2(C)C)no1
23,64 to 65 °C,COc1ccc(C#N)c(F)c1OC
24,282 to 283 °C,Cc1ccc(-c2nc(O)cc(-c3ccccc3)n2)cc1
25,55 to 58 °C,CCCCCCCCCCCCCCOc1ccc(N)cc1OCCCCCCCCCCCCCC

row,melting point,Compound
1,209 to 210 °C,CC(=O)NC1CCc2c([nH]c3ccc(F)cc23)C1 (centres undefined)
2,109 to 110 °C,CSCc1c(N)c(C#N)cc(F)c1F
3,218 to 219 °C,CCOC(=O)c1c(Cn2cnnc2)nc2cc(OC)c(OC)cc2c1-c1ccc(OC)cc1
4,275 to 277 °C,Nc1c(F)c(N2C[C@@H](N)[C@@H](n3ccnn3)C2)c(F)c2c1c(=O)c(C(=O)O)cn2C1CC1 (relative stereo)
5,160 °C,C#CCN1CCCc2ccc(OC(=O)Nc3ccc(Cl)cc3)cc21
6,92 to 94 °C,COC(=O)[C@H](c1ccccc1Cl)N1CCc2sc(OC(=O)c3cccnc3)cc2C1
7,117 °C,CS(=O)c1ccc(C(=O)c2cnoc2C2CC2)c(Cl)c1 (centres undefined)
8,78 to 81 °C,O=C1OC(CCCCN2CCN(c3ccccn3)CC2)CN1c1ccccc1 (centres undefined)
9,81 to 84 °C,Cc1ccc(C)c(-c2ccc(S(=O)(=O)N3c4ccccc4CC3C(=O)NCCOc3ccc(CC(=O)O)cc3)cc2)c1 (centres undefined)
10,301 to 302 °C,COc1ccc(-c2cnc(N3Cc4c([nH]c5ccccc5c4=O)C3C3Cc4ccccc4O3)nc2)cc1 (centres undefined)
11,224 to 226 °C,CCOCCn1cc2c(C3C(=O)Nc4ccc(Cl)cc43)nc(NCCc3cccnc3)nc2n1 (centres undefined)
12,228 to 230 °C,COc1ccc(N2CCOCC2)c2sc(-c3ncc[nH]3)nc12
13,157 to 161 °C,C=CCN(CC=C)c1nc(NC(=O)C=C)n2oc(=O)nc2n1
14,96 to 98 °C,COc1ccc(-c2cc(=Nc3c(C)cc(C)cc3C)n(C)c(N(C)Cc3ccccc3)n2)cc1OC
15,254 to 256 °C,O=C(O)c1ccc(C=CC(=O)N2CCc3c([nH]c4ccccc34)C2c2ccc3c(c2)OCO3)cc1 (centres undefined)
16,129 to 130 °C,COc1ccccc1C(=O)c1cc2ccccc2[nH]1
17,247 to 250 °C,CCOC(=O)c1ccc(Nc2cc(C)nc3cn[nH]c23)cc1
18,225 to 227 °C,Cn1c(=O)c2c(nc3n2CC(O)CN3Cc2ccccc2)n(C)c1=O (centres undefined)
19,96 to 99 °C,COc1ccc(C(=O)O)nc1OC1CCCC1
20,> 250 °C,CC(C)n1cc(Nc2nc(-c3ccc4cn[nH]c4c3)cn3ccnc23)cn1
21,83.1 to 86.3 °C,CCc1nc(C)cn1CO
22,214 °C,O=C(N[C@H]1CC[C@H](CCN2CCN(c3nccc4c3CCO4)CC2)CC1)c1ccc(N2CCCCC2)cc1

row,Compound,melting point
1,S=[PH2]CCC(c1ccccc1)(c1ccccc1)c1ccccc1,88 °C
2,CC(=O)c1cn(-c2c(Cl)cc(C(F)(F)F)cc2Cl)nc1C#N,166 to 168 °C
3,COC12CC(CO)CN(C)C1Cc1cn(C(C)(C)C)c3cccc2c13 (centres undefined),172 to 174 °C
4,COC(=O)[C@@H]1[C@@H](O)CCN1C(=O)Nc1ccc(C#N)c(Cl)c1C,189 to 191 °C
5,O=C(Cc1c[nH]c2ccccc12)NC1N=C(c2ccccc2)c2ccccc2NC1=O (racemic),264 to 265 °C
6,C1=C(c2cccs2)CCN(CCCSc2ccncc2)C1,86 to 87 °C
7,CCCCCCCCCCCC(OO)OOC(CCCCCCCCCCC)OO (centres undefined),56 to 58 °C
